{"source": "paper PMC9611952", "about": "“Structural Aspects and Intermolecular Energy for Some Short Testosterone Esters” (Materials, 2022)", "key": {"[1]": {"settings": "cited from earlier work"}, "[2]": {"assay": "Solubility check in organic oil solutions (78% oil, 20% benzyl benzoate, 2% benzyl alcohol)", "type": "physicochemical", "settings": "25 °C; for solubility compared among the four esters (in words): oil solutions, comparison with the acetate ester; for solubility: oil or lipid, thermodynamic from solid, average of three", "experimental": "The solubility for the four esters (mg/mL) was measured in solutions of various organic oils: medium-chain triglyceride (MCT), grape seed oil (GSO), castor oil, cottonseed oil, apricot oil, and sesame oil.\nEach solution was composed of a mixture of benzyl benzoate, benzyl alcohol, and oil having a volumetric ratio of 78% oil, 20% benzyl benzoate, and 2% benzyl alcohol. In various pharmaceutical preparations of lipophilic compounds, including various steroids, benzyl benzoate is used as a solubiliser (co-solvent), benzyl alcohol acts as a solvent and at the same time prevents microbial growth and increases the lipid solubility of various esterified compounds, while the oils are used as carriers.\nIn order to obtain good accuracy, three such procedures were carried out, and their average was used."}, "[3]": {"design": "method as in PMID 8095531", "settings": "microemulsion study, cited from earlier work"}, "[4]": {"settings": "esterified forms of testosterone, intramuscular injections"}, "[5]": {"settings": "apricot oil / benzyl benzoate / benzyl alcohol solution, apricot oil 78% / benzyl benzoate 20% / benzyl alcohol 2%, read-out: Solubility APRICOT"}, "[6]": {"settings": "castor oil / benzyl benzoate / benzyl alcohol solution, castor oil 78% / benzyl benzoate 20% / benzyl alcohol 2%, read-out: Solubility CASTOR"}, "[7]": {"settings": "cottonseed oil / benzyl benzoate / benzyl alcohol solution, cottonseed oil 78% / benzyl benzoate 20% / benzyl alcohol 2%, read-out: Solubility COTTON"}, "[8]": {"settings": "grape seed oil / benzyl benzoate / benzyl alcohol solution, grape seed oil 78% / benzyl benzoate 20% / benzyl alcohol 2%, read-out: Solubility GSO"}, "[9]": {"settings": "medium-chain triglyceride 78% / benzyl benzoate 20% / benzyl alcohol 2%, read-out: Solubility MCT"}, "[10]": {"settings": "sesame oil / benzyl benzoate / benzyl alcohol solution, sesame oil 78% / benzyl benzoate 20% / benzyl alcohol 2%, read-out: Solubility SESAME"}}, "note": "Where two headings read alike, the source gives them in different places."}
{"smiles": "CC(C)CCC(=O)OC1CCC2C3CCC4=CC(=O)CCC4(C)C3CCC12C", "note": "(stereo not drawn) [TIso, Androst-4-en-17β-ol-3-one 17β-4-methylpentanoate]", "values": [{"measurement": "half-life", "setting": "[1]; [4]", "result": 74.4, "unit": "h"}, {"measurement": "solubility compared among the four esters (in words)", "setting": "[2]", "result": "roughly four-fold greater solubility"}]}
{"smiles": "CCCCCCC(=O)O[C@H]1CC[C@H]2[C@@H]3CCC4=CC(=O)CC[C@]4(C)[C@H]3CC[C@]12C", "note": "[testosterone enanthate]", "values": [{"measurement": "concentration obtained in dimethoxytetraethylene glycol", "setting": "[3]", "result": 91200, "unit": "µg/mL"}, {"measurement": "concentration supported in soybean oil", "setting": "[3]", "result": 31500, "unit": "µg/mL"}]}
{"smiles": "CC(=O)O[C@]1(C(C)=O)CC[C@H]2[C@@H]3C[C@H](C)C4=CC(=O)CC[C@]4(C)[C@H]3CC[C@@]21C", "note": "[medroxyprogesterone acetate]", "values": [{"measurement": "concentration obtained in dimethoxytetraethylene glycol", "setting": "[3]", "result": 1320, "unit": "µg/mL"}, {"measurement": "concentration supported in soybean oil", "setting": "[3]", "result": 2160, "unit": "µg/mL"}]}
{"smiles": "CC12CCC(=O)C=C1CCC1C2CCC2(C)C(OC(=O)CCc3ccccc3)CCC12", "note": "(stereo not drawn) [TPhp, Androst-4-en-17β-ol-3-one 17β-phenylpropionate]", "values": [{"measurement": "half-life", "setting": "[1]; [4]", "result": 60, "unit": "h"}]}
{"smiles": "CCC(=O)O[C@H]1CC[C@H]2[C@@H]3CCC4=CC(=O)CC[C@]4(C)[C@H]3CC[C@]12C", "note": "[TPro, Androst-4-en-17β-ol-3-one 17β-propionate]", "values": [{"measurement": "concentration obtained in dimethoxytetraethylene glycol", "setting": "[3]", "result": 12000, "unit": "µg/mL"}, {"measurement": "concentration supported in soybean oil", "setting": "[3]", "result": 3420, "unit": "µg/mL"}, {"measurement": "half-life", "setting": "[1]; column of Table S2", "result": 24, "unit": "h"}, {"measurement": "half-life", "setting": "[1]; [4]", "result": 24, "unit": "h"}, {"measurement": "solubility", "setting": "[2]; [5]", "result": 127, "unit": "mg/mL"}, {"measurement": "solubility", "setting": "[2]; [6]", "result": 194, "unit": "mg/mL"}, {"measurement": "solubility", "setting": "[2]; [7]", "result": 174, "unit": "mg/mL"}, {"measurement": "solubility", "setting": "[2]; [8]", "result": 152, "unit": "mg/mL"}, {"measurement": "solubility", "setting": "[2]; [9]", "result": 185, "unit": "mg/mL"}, {"measurement": "solubility", "setting": "[2]; [10]", "result": 189, "unit": "mg/mL"}]}
{"smiles": "CC(=O)OC1CCC2C3CCC4=CC(=O)CCC4(C)C3CCC12C", "note": "(stereo not drawn) [TAce, Androst-4-en-17β-ol-3-one 17β-acetate]", "values": [{"measurement": "Half-life (days)", "setting": "[1]; column of Table S2", "result": "less than one day"}, {"measurement": "half-life", "setting": "[1]; [4]", "result": "less than 1 days"}, {"measurement": "solubility", "setting": "[2]; [5]", "result": 82.5, "unit": "mg/mL"}, {"measurement": "solubility", "setting": "[2]; [6]", "result": 162, "unit": "mg/mL"}, {"measurement": "solubility", "setting": "[2]; [7]", "result": 98.8, "unit": "mg/mL"}, {"measurement": "solubility", "setting": "[2]; [8]", "result": 98.8, "unit": "mg/mL"}, {"measurement": "solubility", "setting": "[2]; [9]", "result": 120, "unit": "mg/mL"}, {"measurement": "solubility compared among the four esters (in words)", "setting": "[2]", "result": "lowest solubility"}, {"measurement": "solubility", "setting": "[2]; [10]", "result": 99, "unit": "mg/mL"}]}
{"smiles": "C[C@]12CC[C@H]3[C@@H](CCC4=CC(=O)CC[C@@]43C)[C@@H]1CC[C@@H]2O", "note": "[testosterone base, 17β-hydroxyandrost-4-en-3-one]", "values": [{"measurement": "half-life", "setting": "[1]; testosterone base (no ester)", "result": "a few hours"}]}
